From patent US7678787B2, “Pyrrolobenzodiazepine pyridine carboxamides and derivatives as follicle-stimulating hormone receptor antagonists” (Wyeth, priority 2005, dated 2010)
Like-named read-outs stand apart in the source and are kept apart here.

Assays:
human FSH receptor = biological target: T1, human FSH receptor (Homo sapiens, UniProt P23945); assay: FSH receptor-dependent CRE-luciferase reporter gene assay (CHO FSH-R 6CRE-Luc cells); format: cell-based
T1 construct: host or cells: CHO-K1 (CHO FSH-R 6CRE-Luc, 1D7 cells)
T1 sequence (P23945 18-695): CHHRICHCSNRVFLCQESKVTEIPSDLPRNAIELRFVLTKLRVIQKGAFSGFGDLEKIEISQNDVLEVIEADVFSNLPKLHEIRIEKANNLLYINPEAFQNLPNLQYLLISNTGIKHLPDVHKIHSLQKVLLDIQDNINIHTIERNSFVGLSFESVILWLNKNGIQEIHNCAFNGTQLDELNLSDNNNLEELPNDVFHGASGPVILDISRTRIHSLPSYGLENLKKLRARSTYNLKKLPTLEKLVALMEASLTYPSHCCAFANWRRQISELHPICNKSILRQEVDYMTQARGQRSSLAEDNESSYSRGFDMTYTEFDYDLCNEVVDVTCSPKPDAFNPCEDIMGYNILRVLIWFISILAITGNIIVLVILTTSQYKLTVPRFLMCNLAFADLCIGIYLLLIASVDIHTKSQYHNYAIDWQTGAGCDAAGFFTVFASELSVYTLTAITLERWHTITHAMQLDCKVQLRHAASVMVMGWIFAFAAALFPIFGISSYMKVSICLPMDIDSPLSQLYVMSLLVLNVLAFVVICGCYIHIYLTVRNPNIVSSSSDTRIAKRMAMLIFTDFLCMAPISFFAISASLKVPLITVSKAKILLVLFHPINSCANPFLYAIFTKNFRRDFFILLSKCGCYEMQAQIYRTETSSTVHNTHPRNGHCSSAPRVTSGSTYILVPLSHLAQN

[1] = 2-dose format, test concentration in parentheses = 30 μM, percent inhibition of response to EC50 of FSH, read-out: CRE % inhibition

| inhibition at 30 µM (human FSH receptor; [1]) | melting point | SMILES | inhibition at 30 µM (human FSH receptor; read-out: CRE % inhibition (μM)) |
| --- | --- | --- | --- |
| 11% | – | Cc1cc(C(=O)N2Cc3ccc(C(=O)NCc4cccnc4)n3Cc3ccccc32)ccc1-c1ccc(Cl)c(Cl)c1 [Example 25] | – |
| 29% | 198 to 199 °C | O=C(c1ccccc1)c1ccccc1-c1ccc(C(=O)N2Cc3ccc(C(=O)NCc4cccnc4)n3Cc3ccccc32)cc1 [Example 60] | – |
| 17.3% | – | COc1ccccc1-c1ccc(S(=O)(=O)N2Cc3ccc(C(=O)NCc4cccnc4)n3Cc3ccccc32)cc1 [Example 71] | – |
| 6.61% | – | O=C(NCc1cccnc1)c1ccc2n1Cc1ccccc1N(S(=O)(=O)c1ccc(-c3ccccc3Cl)cc1)C2 [Example 72] | – |
| 2.4% | 157 to 158 °C | O=C(NCc1cccnc1)c1ccc2n1Cc1ccccc1N(C(=O)c1ccccc1C(F)(F)F)C2 [Example 82] | – |
| 37% | – | O=C(NCc1cccnc1)c1ccc2n1Cc1ccccc1N(C(=O)c1ccc(Cl)cc1)C2 [Example 91] | – |
| 17% | – | Cc1ccccc1C(=O)N1Cc2ccc(C(=O)NCc3cccnc3)n2Cc2ccccc21 [Example 94] | – |
| 18% | 142 to 143 °C | O=C(NCc1cccnc1)c1ccc2n1Cc1ccccc1N(C(=O)c1ccccc1F)C2 [Example 97] | – |
| 21% | 172 to 175 °C | O=C(NCc1cccnc1)c1ccc2n1Cc1ccccc1N(C(=O)c1ccc(-c3cncnc3)cc1)C2 [Example 106] | – |
| 41% | – | O=C(NCc1cccnc1)c1ccc2n1Cc1ccccc1N(C(=O)c1cnccn1)C2 [Example 123] | – |
| 7% | – | O=C(NCc1cccnc1)c1ccc2n1Cc1ccccc1N(C(=O)c1cccnc1)C2 [Example 124] | – |
| 9% | – | O=C(NCc1cccnc1)c1ccc2n1Cc1ccccc1N(C(=O)c1ccc(NCCCc3ccccc3)nc1)C2 [Example 127] | – |
| 26% | – | CN(Cc1ccccc1)c1ccc(C(=O)N2Cc3ccc(C(=O)NCc4cccnc4)n3Cc3ccccc32)cn1 [Example 130] | – |
| 26% | – | O=C(NCc1cccnc1)c1ccc2n1Cc1ccccc1N(C(=O)c1ccc(NCCO)nc1)C2 [Example 132] | – |
| 4% | – | O=C(NCc1cccnc1)c1ccc2n1Cc1ccccc1N(C(=O)c1ccc(OCc3ccccc3)nc1)C2 [Example 134] | – |
| 16% | 83 °C | CC(Oc1ccccc1)C(=O)N1Cc2ccc(C(=O)NCc3cccnc3)n2Cc2ccccc21 (centres unmarked) [Example 137] | – |
| 48% | 153 to 155 °C | O=C(NCc1cccnc1)c1ccc2n1Cc1ccccc1N(C(=O)Cc1ccc(-c3ccccc3)cc1)C2 [Example 143] | – |
| 35% | 175 °C | O=C(NCc1cccnc1)c1ccc2n1Cc1ccccc1N(C(=O)/C=C/c1ccccc1)C2 [Example 144] | – |
| 40% | 188 °C | O=C(NCc1cccnc1)c1ccc2n1Cc1ccccc1N(C(=O)c1cccc3ccccc13)C2 [Example 145] | – |
| 35% | 103 to 107 °C | CC(C)(C)CC(=O)N1Cc2ccc(C(=O)NCc3cccnc3)n2Cc2ccccc21 [Example 148] | – |

Continued, compound first:

| SMILES | inhibition at 30 µM (human FSH receptor; [1]) | melting point | inhibition at 30 µM (human FSH receptor; read-out: CRE % inhibition (μM)) |
| --- | --- | --- | --- |
| O=C(NCc1cccnc1)c1ccc2n1Cc1ccccc1N(C(=O)c1c(F)cccc1F)C2 [Example 86] | 40% | 103 to 109 °C | – |
| COC(=O)c1ccc(C(=O)N2Cc3ccc(C(=O)NCc4cccnc4)n3Cc3ccccc32)cc1 [Example 87, METHYL 4-{[3-{[(PYRIDIN-3-YLMETHYL)AMINO]CARBONYL}-5H-PYRROLO[2,1-C][1,4]BENZODIAZEPIN-10(11H)-YL]CARBONYL}BENZOATE] | 38% | 170 to 172 °C | – |
| N#Cc1ccc(C(=O)N2Cc3ccc(C(=O)NCc4cccnc4)n3Cc3ccccc32)cc1 [Example 90] | 13% | – | – |
| O=C(NCc1cccnc1)c1ccc2n1Cc1ccccc1N(C(=O)c1cc(F)cc(F)c1)C2 [Example 95] | 45% | 138 to 140 °C | – |
| O=C(NCc1cccnc1)c1ccc2n1Cc1ccccc1N(C(=O)c1ccc([N+](=O)[O-])cc1)C2 [Example 99] | 35% | – | – |
| O=C(NCc1cccnc1)c1ccc2n1Cc1ccccc1N(C(=O)c1cccs1)C2 [Example 115] | 34% | – | – |
| O=C(NCc1cccnc1)c1ccc2n1Cc1ccccc1N(C(=O)c1ccc(Cl)nc1)C2 [Example 117] | 24% | – | – |
| O=C(NCc1cccnc1)c1ccc2n1Cc1ccccc1N(C(=O)c1ccc(N3CCCCC3)nc1)C2 [Example 125] | – | – | 31% |
| COc1cccc(CNc2ccc(C(=O)N3Cc4ccc(C(=O)NCc5cccnc5)n4Cc4ccccc43)cn2)c1 [Example 129] | 16% | – | – |
| CC(C)(C)c1ccc(OCC(=O)N2Cc3ccc(C(=O)NCc4cccnc4)n3Cc3ccccc32)cc1 [Example 135] | 34% | 85 °C | – |
| O=C(NCc1cccnc1)c1ccc2n1Cc1ccccc1N(C(=O)COc1ccccc1)C2 [Example 136] | 41% | – | – |
| O=C(NCc1cccnc1)c1ccc2n1Cc1ccccc1N(C(=O)CSc1ccc(Br)cc1)C2 [Example 141] | 32% | – | – |
| O=C(NCc1cccnc1)c1ccc2n1Cc1ccccc1N(C(=O)C1CCCCC1)C2 [Example 149, 10-(CYCLOHEXYLCARBONYL)-N-(PYRIDIN-3-YLMETHYL)-10,11-DIHYDRO-5H-PYRROLO[2,1-C][1,4] BENZODIAZEPINE-3-CARBOXAMIDE] | 8% | – | – |
| CC(C)C(=O)N1Cc2ccc(C(=O)NCc3cccnc3)n2Cc2ccccc21 [Example 150] | 20% | – | – |
